Measurements published in patent US9708282B1, “Anti-inflammatory and antiepileptic neuroprotective statin compounds” (NEURON BIOPHARMA, S.A., priority 2013, dated 2017).

Experiments:
[1] = test system: reactive astroglia; test: Protection against brain inflammation (astrogliosis, GFAP immunohistochemistry) induced by kainate; format: in vivo, mice; conditions: 3.125 mg/kg i.p. 24 h and 0.5 h before kainate 23 mg/kg, then 1 dose/day for three days; surviving animals
Protocol: Based on the coronal sections of the brain obtained during the experiment described above, astrogliosis was analyzed by means of bright field immunohistochemistry for the glial fibrillary acidic protein (GFAP) in surviving animals.
The degree to which astrogliosis has spread (or score) was determined on a scale of intensity from 0 to 3, where zero indicates the absence of reactive astroglia and three indicates maximum reactive astroglia, for each of the groups.

[2] = test system: transgenic ApoB100 mice; test: Hypocholesterolemic effect in endogenous (familial) hypercholesterolemia model; format: in vivo; conditions: 50 mg/kg i.p., 12 h after treatment, male ApoB100 mice
Protocol: The mice were inoculated i.p. with 50 mg/kg of the compounds. Control mice were inoculated with equivalent volumes of the vehicle. Blood was drawn in fasting conditions before treating the animals and 12 h after treatments. Plasma, which was subsequently frozen, was obtained in both cases. The plasma total, LDL and HDL cholesterol concentration was quantified by enzymatic and spectrophotometric methods. After determining cholesterol levels and cholesterol fraction levels (baseline levels and 12 h after treatments), the change thereof with respect to the baseline level was calculated, and the results were depicted as a percentage with respect to the control group.

[3] = Concentrations in plasma of mice after i.p. administration (UPLC-MS); format: in vivo; conditions: male FVB mice, lactone forms; for Plasma levels compared with simvastatin: 50 mg/kg i.p.; for AUC: mouse, plasma, ip, 50 mg/kg i.p., 1, 2, 4 and 6 h
Protocol: (§1) Male FVB mice 4 months of age were treated i.p. with 50 mg/kg of the compounds (n=4-8 mice/group/time). The animals were sacrificed 1, 2, 4 and 6 h after treatment by means of injecting Eutanax, the blood and brain being extracted after perfusion with PBS. The plasma obtained from the blood and the entire brain were frozen at −20° C. until analysis. The compounds were extracted from the tissues with ethyl acetate and resuspended in ethanol for subsequent UPLC-MS quantification. Fluvastatin was used as an internal standard.

[4] = molecular target: T1, β-secretase (BACE) (Mus musculus, UniProt P56818); test: β-secretase (BACE) enzymatic activity in the brain of mice after i.p. administration; format: in vivo; conditions: 50 mg/kg i.p., 24 h after administration, FVB mice, brain homogenates
T1 construct: contacting a BACE-specific, fluorogenic substrate with a brain homogenate in which the enzyme is present; from tissue; host or cells: brain (without cerebellum) of FVB mice
T1 sequence (P56818 46-501): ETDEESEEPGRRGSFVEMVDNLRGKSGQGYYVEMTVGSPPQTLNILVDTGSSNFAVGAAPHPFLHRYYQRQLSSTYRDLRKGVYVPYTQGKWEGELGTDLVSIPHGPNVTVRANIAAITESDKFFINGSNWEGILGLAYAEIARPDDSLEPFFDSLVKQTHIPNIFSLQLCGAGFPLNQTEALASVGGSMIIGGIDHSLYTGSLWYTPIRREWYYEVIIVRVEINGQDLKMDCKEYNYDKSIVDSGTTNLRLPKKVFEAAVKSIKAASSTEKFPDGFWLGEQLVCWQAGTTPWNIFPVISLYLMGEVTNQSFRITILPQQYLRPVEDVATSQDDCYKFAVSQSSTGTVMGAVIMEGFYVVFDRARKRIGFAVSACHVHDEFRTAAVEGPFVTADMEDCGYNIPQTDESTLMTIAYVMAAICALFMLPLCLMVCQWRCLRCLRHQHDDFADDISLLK
Protocol: During the reaction, contacting a BACE-specific, fluorogenic substrate with a brain homogenate in which the enzyme is present allows quantifying the enzyme activity by means of measuring the fluorescence emitted.
Female FVB mice 4 months of age were treated i.p. with 50 mg/kg of the compounds or with equivalent volumes of the vehicle (n=6 mice/group). After 24 h, the animals were sacrificed and the brain was extracted and frozen at −20° C., first disposing of the cerebellum. After freezing the brains for 24 h, they were homogenized by making a 1/100 dilution in 0.1 M sodium acetate at pH 4. The samples were incubated for 10 minutes under cold conditions to favor lysis and to obtain the extract after centrifuging at 10,000 g for 10 minutes. The enzymatic reaction was then carried out. […] 50 μL of a 20 μM fluorogenic BACE substrate (Mca-[…]) were added to the samples and controls, the final concentration in the well being 10 μM and the total reaction volume being 100 μL. […] The results obtained in arbitrary units were normalized by the amount of protein that was determined by the bicinchoninic acid (BCA) method.

[5] = test system: neurons of the hippocampus; conditions: 3.125 mg/kg i.p. 24 h and 0.5 h before kainate 23 mg/kg, then 1 dose/day for three days
[6] = molecular target: T2, 3-hydroxy-3-methylglutaryl coenzyme A reductase (HMGCR) (Homo sapiens, UniProt P04035); test: Inhibition of HMGCR enzymatic activity in vitro (NADPH absorbance at 340 nm); format: biochemical; conditions: hydroxy acid forms
T2 construct: representing oxidation of NADPH by the catalytic subunit of HMGCR in the presence of the substrate
T2 sequence (P04035 426-888 limits assumed): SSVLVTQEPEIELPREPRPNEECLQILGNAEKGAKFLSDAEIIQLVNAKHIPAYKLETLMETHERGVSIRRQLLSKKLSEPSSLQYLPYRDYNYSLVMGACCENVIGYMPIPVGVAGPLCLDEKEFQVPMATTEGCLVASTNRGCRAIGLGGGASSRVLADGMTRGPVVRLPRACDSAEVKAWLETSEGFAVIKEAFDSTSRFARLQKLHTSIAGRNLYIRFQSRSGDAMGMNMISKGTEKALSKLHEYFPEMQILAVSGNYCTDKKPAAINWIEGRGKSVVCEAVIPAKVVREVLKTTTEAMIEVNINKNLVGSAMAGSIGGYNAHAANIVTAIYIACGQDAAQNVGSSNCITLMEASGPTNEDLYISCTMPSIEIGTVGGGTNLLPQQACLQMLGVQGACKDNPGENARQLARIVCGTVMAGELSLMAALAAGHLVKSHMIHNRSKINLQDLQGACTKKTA
From the text: The degree of inhibition of the HMGCR enzyme in vitro by NST0076 and NST0078 in the hydroxy acid form thereof was studied.
During the reaction, HMGCR uses NADPH (Nicotinamide Adenine Dinucleotide Phosphate) as reducing agent and 3-hydroxy-3-methylglutaryl coenzyme A (HMG-CoA) as substrate. Mevalonic acid is obtained as a reaction product, and it serves as substrate for the subsequent reaction to continue with cholesterol synthesis. The enzymatic reaction object of study is schematized as follows: HMG-CoA+2.NADPH+2.H^+→Mevalonic acid+2.NADP^++CoASH
This in vitro assay is based on the spectrophotometric measurement of the decrease in absorbance at 340 nm, representing oxidation of NADPH by the catalytic subunit of HMGCR in the presence of the substrate. […] Briefly, the assay is performed in a 96-well plate with reaction buffer 50 mM KH2PO4, 1 M KCl, 2 mg/ml bovine serum albumin (BSA) and 5 mM DTT, at pH=7.3, and the concentrations of the reagents in the reaction mixture are 0.2 mM HMG-CoA, 3 μU/point HMGCR and 0.2 mM NADPH. The plate is read in a spectrophotometer at 340 nm and 37° C.

[7] = test system: FVB/NRj mice; test: Protection against epilepsy caused by kainate (Racine scale); conditions: 3.125 mg/kg i.p. 24 h and 0.5 h before kainate 23 mg/kg
[8] = Concentrations in the brain of mice after i.p. administration (UPLC-MS); format: in vivo; conditions: male FVB mice, lactone forms; for AUC in the brain: 50 mg/kg i.p., 1, 2, 4 and 6 h; for Brain AUC and Cmax compared with simvastatin: 50 mg/kg i.p.
Protocol: as §1

[9] = test system: β-secretase (BACE); test: β-secretase (BACE) enzymatic activity in the brain of zebra fish after i.p. administration; format: in vivo; conditions: 100 mg/kg i.p., 24 h after administration, zebra fish 24 months of age
Protocol: The compounds object of study were prepared at different concentrations according to the weight of the animals in 0.5% methylcellulose in physiological saline, homogeneous suspensions thereof being obtained. Female zebra fish 24 months of age were treated i.p. with 100 mg/kg of the compounds or with equivalent volumes of the vehicle (n=8 fish/group). After 24 h, the animals were sacrificed and the brain was extracted and frozen at −20° C. After freezing the brains for 24 h, they were homogenized in 500 μL of 0.1 M sodium acetate at pH 4. The samples were incubated for 10 minutes under cold conditions to favor lysis and to obtain the extract after centrifuging at 10,000 g for 10 minutes. The enzymatic reaction was then carried out in the same way as in the case mice.

SMILES | Degree of astrogliosis induced by kainate (score 0 to 3) [1] | Hypocholesterolemic effect (change in plasma total, LDL and HDL cholesterol) [2] | Plasma levels compared with simvastatin [3] | AUC [3] [ng·h/mL] | BACE enzymatic activity in the brain of mice [4] | Percentage of animals without damage (hippocampus) [5] [%] | HMGCR inhibition (in words) [6] | HMGCR inhibition, times less than simvastatin [6] | IC50 ([6]; 20 min, 37° C., read-out: IC50 (concentration at which 50% of the HMGCR enzymatic activity is inhibited)) [nM] | Levels of epilepsy (AUC of Racine scale over 120 min, with respect to Vehicle+KA group) [7] | AUC in the brain [8] [µg·h/g] | Brain AUC and Cmax compared with simvastatin [8] | BACE enzymatic activity in the brain of zebra fish [9]
CCC(CC)C(=O)O[C@H]1C[C@@H](C)C=C2C=C[C@H](C)[C@H](CC[C@@H]3C[C@@H](O)C(C)C(=O)O3)[C@H]21 (stereo partly drawn) [NST0076, (1S,3R,7S,8S,8aR)-8-(2-((2R,4R)-4-hydroxy-5-methyl-6-oxo-tetrahydro-2H-pyran-2-yl)ethyl)-3,7-dimethyl-1,2,3,7,8,8a-hexahydro-naphthalen-1-yl 2-ethylbutanoate] | protected against astrogliosis induced by kainate in all the studied regions | did not show any hypocholesterolemic effect | plasma levels considerably greater than simvastatin | 12000 | capable of reducing BACE enzymatic activity in a statistically significant manner | 50 | do not significantly inhibit the HMGCR enzyme | about 28 times | 603 ± 177 | greater reduction of the levels of epilepsy compared to simvastatin | 37 | AUC and Cmax values surprisingly greater than those of simvastatin | –
CCC(CC)C(=O)O[C@H]1C[C@@H](C)C=C2C=C[C@H](C)[C@H](CC[C@@H]3C[C@@H](O)C(CC)C(=O)O3)[C@H]21 (stereo partly drawn) [NST0078, (1S,3R,7S,8S,8aR)-8-(2-((2R,4R)-5-ethyl-4-hydroxy-6-oxo-tetrahydro-2H-pyran-2-yl)ethyl)-3,7-dimethyl-1,2,3,7,8,8a-hexahydronaphthalen-1-yl 2-ethylbutanoate] | protected against astrogliosis induced by kainate in all the studied regions | did not show any hypocholesterolemic effect | plasma levels considerably greater than simvastatin | 17000 | capable of reducing BACE enzymatic activity in a statistically significant manner | 60 | – | about 1,900 times | – | greater reduction of the levels of epilepsy compared to simvastatin | 17 | AUC and Cmax values surprisingly greater than those of simvastatin | capable of reducing BACE enzymatic activity with respect to the control in a statistically significant manner
C[C@H]1C=C2C=C[C@H](C)[C@H](CC[C@@H]3C[C@@H](O)CC(=O)O3)[C@H]2[C@@H](O)C1 [monacolin J, reference compound] | – | – | – | – | – | – | HMGCR inhibitory capacity much less than that of simvastatin | – | – | – | – | – | –
CCC(C)(C)C(=O)O[C@H]1C[C@@H](C)C=C2C=C[C@H](C)[C@H](CC[C@@H]3C[C@@H](O)CC(=O)O3)[C@H]21 [simvastatin, reference compound] | – | – | – | – | – | 25 | – | – | – | – | – | – | –
